Measured values reported in patent US11213666B2, “Method for administering a medicament suitable for treating a migraine or cluster headache” (SORRENTO THERAPEUTICS, INC., priority 2016, dated 2022).
Read-outs that look alike come from different tables or passages of the source.

Experiments:
[1] = Porcine pharmacokinetic study of sumatriptan delivered by the microneedle fluid delivery apparatus (FIG. 50); type: in vivo, Yorkshire pigs; conditions: 20 mg via fluid delivery apparatus (microneedles), pig, blood serum; compared with nasal, oral and Zecuity administration
Protocol: In reference to FIG. 50, shown is the time versus concentration profile of sumatriptan as administered according to the methods and devices disclosed herein. An ideal profile (identified as “Target PK Profile”) is calculated based on the therapeutic efficiency of the medicament.
Thirty five 80 kg castrated or female Yorkshire pigs were placed under anesthesia and a catheter was inserted into the right or left jugular vein. After the catheter was placed, the pigs were kept under anesthesia and placed on their backs. The ventral region was shaved and covered with a depilatory cream (Nair Sensitive®) for 8 minutes. The cream was removed and the area washed with alcohol. The fluid delivery apparatus was placed against the skin with an adhesive and the microneedles (100 total) were inserted at a post traveling velocity of 6 m/s. A 20 mg dose of sumatriptan from the fluid deliver apparatus was delivered while the pig was under anesthesia. 3 mL blood samples were withdrawn at each time point and spun down to recover the blood serum.

[2] = cited from earlier work
[3] = nasal administration, compared with the actual profile of the fluid delivery apparatus (FIG. 49 vs FIG. 50)
[4] = subcutaneous administration, compared with the other routes of administration

- AUC [1]: significantly improved
- Css [1]: significantly improved
- Tmax [1]: significantly improved
Compound: CNS(=O)(=O)Cc1ccc2[nH]cc(CCN(C)C)c2c1.O=C(O)CCC(=O)O [sumatriptan, 1-[3-[2-(dimethylamino)ethyl]-1H-indol-5-yl]-N-methylmethanesulfonamide butanedioic acid]
- AUC [2, 3]: significantly lower
- Css [2, 3]: significantly lower
- Tmax ([2]; oral administration, compared with the actual profile of the fluid delivery apparatus): much slower
- Css ([2]; subcutaneous administration, as time progresses): significantly lower
- Cmax [2, 4]: higher
- Tmax [2, 4]: much faster
